According to patent US10996215B2, “Methods for determining drug efficacy for the treatment of diffuse large B-cell lymphoma, multiple myeloma, and myeloid cancers” (CELGENE CORPORATION, priority 2013, dated 2021):
Residues, ends and D or L forms follow the SMILES beside them. *: point of attachment. Cbz = O=C(OCc1ccccc1)*

What was measured:
ZFP91, Aiolos = assay: Western blot of ZFP91 and Aiolos in OCI-LY10 cells; format: cell-based; settings: for levels of ZFP91 and Aiolos: 6 hrs, 100 mM thalidomide, 10 mM lenalidomide, 1 mM pomalidomide, 1 μM or 10 μM Compound A, 100 nM Compound B, FIG. 17A
Description: (§1) Cells were harvested with RIPA buffer, and proteins from cell lysates were separated by 10% sodium dodecyl sulfate polyacrylamide (SDS-PAGE) gel electrophoresis (Bio-Rad), and transferred to PVDF membranes (Invitrogen). Immunoblots were probed with antibodies recognizing Aiolos (9-9-7; Celgene), CK1α(Abcam), GSPT1 (Sigma), ZFP91 (LSBio) and β-actin (Li-Cor). Signals were detected with a Li-Cor Odyssey imager.
Immunoblots were probed with antibodies recognizing Aiolos (9-9-7; Celgene), GSPT1 (Sigma), ZFP91 (LSBio) and β-actin (Li-Cor). Signals were detected with a Li-Cor Odyssey imager.
as §1, with “OCI-LY10 cells treated with DMSO or various drugs for 6 hrs. Cells” for “Cells”, “buffer” for “buffer,”, “recognizing:” for “recognizing”
OCI-LY10 cells were then treated with DMSO or various drugs for 6 hrs. […] Cells were harvested with RIPA buffer and Proteins from cell lysates were separated by 10% sodium dodecyl sulfate polyacrylamide (SDS-PAGE) gel electrophoresis (Bio-Rad), and transferred to PVDF membranes (Invitrogen). Immunoblots were probed with antibodies recognizing: Aiolos (9-9-7; Celgene), ZFP91 (LSBio), ZNF198 (LSBio) and β-actin (Li-Cor). Signals were detected with a Li-Cor™ Odyssey imager.
OCI-LY10 cells stably transduced with shCRBN 11 were induced for 48 hrs with either 0 or 10 ng/ml of doxycycline. […] Where MLN4924 treatments were present, MLN4924 was pre-incubated for 1 hr prior to drug treatment. Cells were harvested with RIPA buffer and Proteins from cell lysates were separated by 10% sodium dodecyl sulfate polyacrylamide (SDS-PAGE) gel electrophoresis (Bio-Rad), and transferred to PVDF membranes (Invitrogen). Immunoblots were probed with antibodies recognizing: CRBN-65, Aiolos (9-9-7; Celgene), Ikaros (Millipore), ZFP91 (LSBio) and β-actin (Li-Cor). Signals were detected with a Li-Cor Odyssey imager.

Aiolos, Ikaros, ZFP91 [1] = assay: CRBN dependence of ZFP91 reduction in U266 cells, Western blot; format: cell-based; settings: for destruction of Aiolos, Ikaros, and ZFP91 (CRBN dependent pathway): 6 hour; for compound-induced reduction of Aiolos, Ikaros, and ZFP91 after inhibitor pretreatment: 10 mM MLN4924 or MG132 for 1 hr, then compounds 6 hr
Procedure: U266 cells were transduced with inducible shRNA constructs targeting CRBN or targeting luciferase as control. Cells were grown in the presence or in the absence of 10 ng/ml Doxycycline, and in the presence or in the absence of 1 μM pomalidomide. Cells were harvested and were treated in cell lysis buffer to generate cell lysates. Proteins from cell lysate were separated by gel electrophoresis and transferred to nitrocellulose membranes. Immunoblots were then probed with antibodies recognizing Aiolos, CRBN, Ikaros, ZFP91, IRF4, IFIT1, IFIT3, P-STAT1, and β-actin (Li-Cor).
Cells were harvested, and lysates were run on 10% SDS-PAGE and immunoblotted with the appropriate antibodies.
MG132 activates c-Jun N-terminal kinase (JNK1), which initiates apoptosis. […] MLN4924 is a NAE1 inhibitor that blocks the activity of Cullin Ring Ligases (CRLs), such as CRL4^CRBN. […] Cells were harvested and lysates were run on 10% SDS-PAGE, transferred to nitrocellulose and immunoblotted with the corresponding antibodies.

NF-κB activation = settings: cited from earlier work
CSNK1A1 (CK1α), Ikaros = assay: MG-132, MLN-4924 or Compound A pre-treatment, Western analysis in HNT-34 cells; format: cell-based; settings: for LEN-mediated CK1α reduction after inhibitor pretreatment: FIG. 27B
[2] = tested on: TMD8 (ABC) or Karpas 422 (GCB) cells; assay: competition with lenalidomide for CRBN, 3H-thymidine proliferation; format: cell-based; settings: TMD8 or Karpas 422; co-treatment with 10 μM lenalidomide; competition of binding to the CRBN complex
Aiolos, Ikaros, ZFP91 [3] = assay: Western blot in myeloma, lymphoma and primary B cells; format: cell-based; settings: U266, DF15, RPMI8226, OCI-LY10, WSU-DLCL2, WSU-DLCL2 Compound A resistant, primary B cells; 8 hours
Procedure: Multiple myeloma cells (U266, DF15, RPMI8226), diffuse large B cell lymphoma cells (OCI-LY10, WSU-DLCL2, WSU-DLCL2 Compound A resistant), and primary B cells were treated with DMSO, […] or […] for 8 hours. Cells were harvested and were treated in cell lysis buffer to generate cell lysates. Proteins from cell lysate were separated by gel electrophoresis (10% SDS-PAGE) and transferred to nitrocellulose membranes. Immunoblots were then probed with antibodies recognizing Aiolos, CRBN, Ikaros, ZFP91 (LSBio), IRF4, IRF7, Myc, and β-actin (Li-Cor).

IFN pathway = assay: effect on IFN pathway (FIG. 13); format: cell-based

For `O=C1CCC(N2C(=O)c3ccccc3C2=O)C(=O)N1` (stereo not shown) [thalidomide], the “levels of ZFP91 and Aiolos” value (ZFP91, Aiolos; OCI-LY10) was “reduced” and the “destruction of Aiolos, Ikaros, and ZFP91 (CRBN dependent pathway)” value (Aiolos, Ikaros, ZFP91 [1]) was “induced”.
For `CC(C)C[C@@H](C=O)NC(=O)[C@H](CC(C)C)NC(=O)[C@H](CC(C)C)NC(=O)OCc1ccccc1` [MG132] (Cbz-Leu-Leu-Leu-aldehyde), the IC50 (NF-κB activation) is listed as 3000 nM, the “CSNK1A1 protein levels in the presence of lenalidomide” value (CSNK1A1 (CK1α), Ikaros; 3 μM or 10 μM MG-132 pre-treatment 30 min) is listed as “stabilized” and the “LEN-mediated CK1α reduction after inhibitor pretreatment” value (CSNK1A1 (CK1α), Ikaros) is listed as “abrogated”. The “compound-induced reduction of Aiolos, Ikaros, and ZFP91 after inhibitor pretreatment” value (Aiolos, Ikaros, ZFP91 [1]) was “blocked”.
For `Cc1ccc(NC(=O)NCc2ccc3c(c2)CN(C2CCC(=O)NC2=O)C3=O)cc1Cl` (stereo not shown) [Compound C, 1-(3-chloro-4-methylphenyl)-3-((2-(2,6-dioxopiperidin-3-yl)-1-oxoisoindolin-5-yl)methyl)urea], the “anti-proliferative effects on co-treatment with lenalidomide” value [2] was “blocks anti-proliferative effects of Compound C”.
In the case of `Nc1cccc2c1C(=O)N(C1CCC(=O)NC1=O)C2=O` (stereo not shown) [pomalidomide], the “levels of Aiolos, Ikaros, and ZFP91” value (Aiolos, Ikaros, ZFP91 [3]) is reported as “reduced”, the “levels of ZFP91 and Aiolos” value (ZFP91, Aiolos; OCI-LY10) is reported as “reduced” and the “pomalidomide induced reductions of Aiolos, Ikaros, and ZFP91 when CRBN knocked down by shRNA” value (Aiolos, Ikaros, ZFP91 [1]; 1 μM pomalidomide, 10 ng/ml Doxycycline) is reported as “blocked”. For the same compound, the “destruction of Aiolos, Ikaros, and ZFP91 (CRBN dependent pathway)” value (Aiolos, Ikaros, ZFP91 [1]) was “induced”, the “IFIT1, IFIT3, DDX58, XAF1, IFIH1, and OAS3 protein expression” value (IFN pathway; FIG. 13A) was “upregulates” and the “DDX58, IFI27, IFIT1, IFIT3, DDX58, and XAF1 gene expression” value (IFN pathway; FIG. 13B) was “upregulates”. For the same compound, the “ISG15 and OAS3 gene expression” value (IFN pathway; FIG. 13C) was “upregulates”, the IRF changes (IFN pathway; FIG. 13E) was “induces” and the “IFIT1 and IFIT3 protein expression” value (IFN pathway; FIG. 13F) was “upregulates”. The IKKE protein level (IFN pathway; FIG. 13F) was “reduces”, the “TBK1 phosphorylation (TBK1-PO4)” value (IFN pathway; FIG. 13F) was “upregulates” and the “levels of STAT or phosphorylated STAT” value (IFN pathway; FIG. 13G) was “induces changes”.
In the case of `O=C1CCC(N2Cc3c(OCc4ccc(CN5CCOCC5)cc4)cccc3C2=O)C(=O)N1` (stereo not shown) [Compound B, 3-[4-(4-Morpholin-4-ylmethyl-benzyloxy)-1-oxo-1,3-dihydro-isoindol-2-yl]-piperidine-2,6-dione], the “levels of ZFP91 and Aiolos” value (ZFP91, Aiolos; OCI-LY10) is reported as “reduced”.
For `NS(=O)(=O)OC[C@@H]1C[C@@H](n2ccc3c(N[C@H]4CCc5ccccc54)ncnc32)C[C@@H]1O` [MLN4924], the “level of both Aiolos and ZFP91 in drug-treated cells after MLN-4924 pre-treatment” value (ZFP91, Aiolos; OCI-LY10, 10 μM MLN-4924 1 hour prior to drug, FIG. 17C) was “restored”, the “Aiolos and ZFP91 degradation in response to Compound A” value (ZFP91, Aiolos; OCI-LY10, 10 μM MLN-4924 pretreatment 1 hour, FIG. 14B) was “blocked” and the “level of both Aiolos and ZFP91 in drug-treated cells after MLN-4924 pre-treatment” value (ZFP91, Aiolos; OCI-LY10 shCRBN 11, lenalidomide or Compound A 6 hours, MLN4924 1 hr pre-incubation, FIG. 17D) was “restored”. The “LEN-mediated CK1α reduction after inhibitor pretreatment” value (CSNK1A1 (CK1α), Ikaros) was “abrogated” and the “compound-induced reduction of Aiolos, Ikaros, and ZFP91 after inhibitor pretreatment” value (Aiolos, Ikaros, ZFP91 [1]) was “blocked”.
